Data as given in US4656166A, “Antibiotic compounds derived from cephalosporins, process for their production and pharmaceutical compositions” (Sanofi, priority 1983, dated 1987).
Values after ≈ are worked out from the molar mass of the structure shown.

Columns and labels:
Format in all cases: cell-based
[1] = system: Pseudomonas RL 112; assay: MIC, in vitro dilution method, Pseudomonas RL 112 (Table III); conditions: RL112
Text: (§1) The products of the invention have been studied as regards their pharmacological properties and, more especially, bacteriostatic action. This has been determined in vitro by the dilution method, and the study was on Gram negative strains.
(§2) Results, expressed in minimum inhibiting concentrations (MIC-- μg/ml), are collected in the following table (Table III).

[2] = system: Klebsiella RO 30; assay: MIC, in vitro dilution method, Klebsiella RO 30 (Table III); conditions: RO30; Klebsiella RO 30; dilution method; read-out: MIC
Text: as §1, §2

[3] = system: Escherichia coli SOL 90; assay: MIC, in vitro dilution method, Escherichia coli SOL 90 (Table III); conditions: SOL90; Escherichia coli SOL 90; dilution method; read-out: MIC
Text: as §1, §2

[4] = system: Enterobacter RO 154; assay: MIC, in vitro dilution method, Enterobacter RO 154 (Table III); conditions: RO154; Enterobacter RO 154; dilution method; read-out: MIC
Text: as §1, §2

Row | Compound | MIC [1] [µg/mL] | MIC [2] [µg/mL] | MIC [3] [µg/mL] | MIC [4] [µg/mL]
1 | Cc1cc(C(=O)SCC2=C(C(=O)O)N3C(=O)C(NC(=O)C(=NOC(C)(C)C(=O)O)c4csc(N)n4)C3[S+]([O-])C2)ccc1CN (stereo not drawn) [compound 42661] | 8 (≈ 12 µM) | 0.25 (≈ 0.376 µM) | 0.5 (≈ 0.752 µM) | 1 (≈ 1.5 µM)
2 | CC(N)C(=O)Nc1ccc(C(=O)OCC2=C(C(=O)O)N3C(=O)C(NC(=O)C(=NOC(C)(C)C(=O)O)c4csc(N)n4)C3[S+]([O-])C2)cc1 (stereo not drawn) [42 817] | 4 (≈ 5.78 µM) | 0.25 (≈ 0.361 µM) | 0.125 (≈ 0.181 µM) | 4 (≈ 5.78 µM)
3 | Cc1cc(CN)ccc1C(=O)SCC1=C(C(=O)O)N2C(=O)C(NC(=O)C(=NOC(C)(C)C(=O)O)c3csc(N)n3)C2[S+]([O-])C1 (stereo not drawn) [compound 42850] | 8 (≈ 12 µM) | 0.25 (≈ 0.376 µM) | 0.5 (≈ 0.752 µM) | 2 (≈ 3.01 µM)
4 | CC(C)(ON=C(C(=O)NC1C(=O)N2C(C(=O)O)=C(COC(=O)c3ccc(CN)c(Br)c3)C[S+]([O-])C12)c1csc(N)n1)C(=O)O (stereo not drawn) [42 676] | 8 (≈ 11.2 µM) | 0.25 (≈ 0.35 µM) | 0.25 (≈ 0.35 µM) | 2 (≈ 2.8 µM)
5 | CC(N)C(=O)N1CCC(C(=O)OCC2=C(C(=O)O)N3C(=O)C(NC(=O)C(=NOC(C)(C)C(=O)O)c4csc(N)n4)C3[S+]([O-])C2)CC1 (stereo not drawn) [42 781] | 4 (≈ 5.85 µM) | 0.125 (≈ 0.183 µM) | 0.25 (≈ 0.366 µM) | 2 (≈ 2.93 µM)
6 | CC(C)(ON=C(C(=O)NC1C(=O)N2C(C(=O)O)=C(CSC(=O)c3cccc(NC(=O)CN)c3)C[S+]([O-])C12)c1csc(N)n1)C(=O)O (stereo not drawn) [compound 42685] | 8 (≈ 11.5 µM) | 1 (≈ 1.44 µM) | 2 (≈ 2.88 µM) | 2 (≈ 2.88 µM)
7 | NCC(=O)N1CCC(C(=O)SCC2=C(C(=O)O)N3C(=O)C(NC(=O)C(=NOC4(C(=O)O)CCC4)c4csc(N)n4)C3[S+]([O-])C2)CC1 (stereo not drawn) [compound 42674] | 8 (≈ 11.5 µM) | 0.5 (≈ 0.717 µM) | 1 (≈ 1.43 µM) | 2 (≈ 2.87 µM)
8 | CC(C)(ON=C(C(=O)NC1C(=O)N2C(C(=O)O)=C(COC(=O)c3csc(NC(=O)CCN)n3)C[S+]([O-])C12)c1csc(N)n1)C(=O)O (stereo not drawn) [42 587] | 4 (≈ 5.72 µM) | 0.25 (≈ 0.358 µM) | 0.25 (≈ 0.358 µM) | 8 (≈ 11.4 µM)
9 | CC(C)(ON=C(C(=O)NC1C(=O)N2C(C(=O)O)=C(COC(=O)C3CCN(C(=O)CCCN)CC3)C[S+]([O-])C12)c1csc(N)n1)C(=O)O (stereo not drawn) [42 783] | 8 (≈ 11.5 µM) | 0.125 (≈ 0.179 µM) | 0.25 (≈ 0.358 µM) | 2 (≈ 2.87 µM)
10 | CNCc1ccc(C(=O)OCC2=C(C(=O)O)N3C(=O)C(NC(=O)C(=NOC(C)(C)C(=O)O)c4csc(N)n4)C3[S+]([O-])C2)cc1F (stereo not drawn) [42 582] | 8 (≈ 12 µM) | 0.25 (≈ 0.375 µM) | 0.25 (≈ 0.375 µM) | 2 (≈ 3 µM)
11 | Cc1c(NC(=O)CN)cccc1C(=O)OCC1=C(C(=O)O)N2C(=O)C(NC(=O)C(=NOC(C)(C)C(=O)O)c3csc(N)n3)C2[S+]([O-])C1 (stereo not drawn) [42 585] | 4 (≈ 5.78 µM) | 0.25 (≈ 0.361 µM) | 0.25 (≈ 0.361 µM) | 8 (≈ 11.6 µM)
12 | CC(C)(ON=C(C(=O)NC1C(=O)N2C(C(=O)O)=C(COC(=O)C3CCC(N)CC3)C[S+]([O-])C12)c1csc(N)n1)C(=O)O (stereo not drawn) [42 811] | 4 (≈ 6.38 µM) | 0.125 (≈ 0.199 µM) | 0.125 (≈ 0.199 µM) | 2 (≈ 3.19 µM)
13 | CNCC(=O)Nc1ccc(C(=O)OCC2=C(C(=O)O)N3C(=O)C(NC(=O)C(=NOC(C)(C)C(=O)O)c4csc(N)n4)C3[S+]([O-])C2)cc1 (stereo not drawn) [42 584] | 4 (≈ 5.78 µM) | 0.25 (≈ 0.361 µM) | 0.25 (≈ 0.361 µM) | 2 (≈ 2.89 µM)
14 | Cc1cc(NC(=O)CN)c(C)c(C(=O)OCC2=C(C(=O)O)N3C(=O)C(NC(=O)C(=NOC(C)(C)C(=O)O)c4csc(N)n4)C3[S+]([O-])C2)c1 (stereo not drawn) [42 814] | 8 (≈ 11.3 µM) | 0.25 (≈ 0.354 µM) | 0.5 (≈ 0.708 µM) | 8 (≈ 11.3 µM)
15 | CC(C)(ON=C(C(=O)NC1C(=O)N2C(C(=O)O)=C(COC(=O)c3ccc(NC(=O)C4CCNCC4)cc3)C[S+]([O-])C12)c1csc(N)n1)C(=O)O (stereo not drawn) [42 815] | 8 (≈ 10.9 µM) | 0.25 (≈ 0.342 µM) | 0.125 (≈ 0.171 µM) | 8 (≈ 10.9 µM)
